According to ChEMBL document CHEMBL1201862, “PubChem BioAssay data set” (2004):
Activity calls are given as the source filed them.

Columns and labels:
[1] = biological target: T1, Calpain-2 catalytic subunit (Sus scrofa, UniProt P43367); test: m-calpain protease blockers, concentration series – biochemical, fluorogenic peptide substrate, dose response (AID 1420); format: functional
T1 sequence (P43367 whole entry): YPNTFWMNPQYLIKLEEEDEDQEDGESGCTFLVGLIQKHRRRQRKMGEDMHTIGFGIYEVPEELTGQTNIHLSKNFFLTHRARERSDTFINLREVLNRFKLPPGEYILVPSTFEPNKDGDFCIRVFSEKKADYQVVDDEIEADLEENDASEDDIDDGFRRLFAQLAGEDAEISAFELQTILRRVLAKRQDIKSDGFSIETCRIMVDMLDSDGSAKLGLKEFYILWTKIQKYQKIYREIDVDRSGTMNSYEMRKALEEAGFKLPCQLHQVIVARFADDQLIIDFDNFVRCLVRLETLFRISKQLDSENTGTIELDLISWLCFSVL

[2] = biological target: T2, Small ubiquitin-related modifier 1 (Homo sapiens, UniProt P63165); test: SUMO1 protein-protein binding blockers, potency – biochemical, FRET, dose response (AID 624383); format: functional; conditions: read-out: IC50_Mean
T2 sequence (P63165 whole entry): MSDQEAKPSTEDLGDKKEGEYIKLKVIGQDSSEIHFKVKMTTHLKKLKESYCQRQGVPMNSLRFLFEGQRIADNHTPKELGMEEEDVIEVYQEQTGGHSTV

[3] = biological target: T2, Small ubiquitin-related modifier 1; test: SUMO1 protein interaction blockers, potency – biochemical, fluorescence polarization, uHTS hits, dose response (AID 624382); format: functional; conditions: read-out: IC50_Mean
[4] = biological target: T3, DNA repair and recombination protein RAD54-like (Homo sapiens, UniProt Q92698); test: RAD54 Holliday junction migration blockers – biochemical, fluorescence, cherry-picked samples, dose series, confirmation (AID 651657); format: functional
T3 sequence (Q92698 whole entry): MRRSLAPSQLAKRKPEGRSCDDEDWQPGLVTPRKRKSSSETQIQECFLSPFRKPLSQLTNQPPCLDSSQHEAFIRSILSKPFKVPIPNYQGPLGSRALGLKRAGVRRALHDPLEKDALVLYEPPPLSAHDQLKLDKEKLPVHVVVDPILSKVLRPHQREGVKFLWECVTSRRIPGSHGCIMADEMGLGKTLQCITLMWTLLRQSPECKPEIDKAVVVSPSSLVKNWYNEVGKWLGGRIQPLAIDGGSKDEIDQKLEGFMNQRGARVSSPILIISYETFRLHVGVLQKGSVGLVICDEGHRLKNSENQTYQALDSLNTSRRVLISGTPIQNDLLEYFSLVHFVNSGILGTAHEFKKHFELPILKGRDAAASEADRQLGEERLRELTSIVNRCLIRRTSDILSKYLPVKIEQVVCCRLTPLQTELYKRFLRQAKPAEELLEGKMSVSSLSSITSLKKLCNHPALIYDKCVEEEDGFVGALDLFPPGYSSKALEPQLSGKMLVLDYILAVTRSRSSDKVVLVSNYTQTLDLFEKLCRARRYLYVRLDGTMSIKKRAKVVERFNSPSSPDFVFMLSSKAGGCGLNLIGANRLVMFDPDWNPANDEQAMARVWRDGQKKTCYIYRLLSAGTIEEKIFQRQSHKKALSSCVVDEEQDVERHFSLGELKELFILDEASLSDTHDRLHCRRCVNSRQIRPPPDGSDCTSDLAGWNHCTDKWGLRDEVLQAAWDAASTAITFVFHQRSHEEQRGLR

Estrogen receptor = biological target: T4, Estrogen receptor (Homo sapiens, UniProt P03372);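 further: potency for inhibiting coactivator peptide recruitment to the receptor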
T4 sequence (P03372 whole entry): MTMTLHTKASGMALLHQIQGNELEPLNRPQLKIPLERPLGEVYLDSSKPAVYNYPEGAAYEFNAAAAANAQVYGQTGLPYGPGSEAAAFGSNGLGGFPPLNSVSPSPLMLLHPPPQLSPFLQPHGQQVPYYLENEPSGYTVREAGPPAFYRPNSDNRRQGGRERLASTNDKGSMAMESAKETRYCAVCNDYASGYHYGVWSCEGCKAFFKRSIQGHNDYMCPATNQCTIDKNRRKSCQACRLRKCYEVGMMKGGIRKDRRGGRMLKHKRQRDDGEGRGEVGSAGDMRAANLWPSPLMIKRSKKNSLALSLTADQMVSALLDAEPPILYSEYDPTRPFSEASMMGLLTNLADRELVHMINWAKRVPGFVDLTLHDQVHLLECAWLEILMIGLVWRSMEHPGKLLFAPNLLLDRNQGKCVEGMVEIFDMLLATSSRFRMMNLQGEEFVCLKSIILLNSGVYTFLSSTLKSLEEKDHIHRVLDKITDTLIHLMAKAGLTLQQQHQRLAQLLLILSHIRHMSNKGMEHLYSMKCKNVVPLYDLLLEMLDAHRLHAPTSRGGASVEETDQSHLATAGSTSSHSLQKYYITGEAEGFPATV

[5] = biological target: T5, Alkaline phosphatase, tissue-nonspecific isozyme (Homo sapiens, UniProt P05186); test: potency against alkaline phosphatase TNAP – biochemical, luminescent, dose response, SAR follow-up (AID 1056)
T5 sequence (P05186 whole entry): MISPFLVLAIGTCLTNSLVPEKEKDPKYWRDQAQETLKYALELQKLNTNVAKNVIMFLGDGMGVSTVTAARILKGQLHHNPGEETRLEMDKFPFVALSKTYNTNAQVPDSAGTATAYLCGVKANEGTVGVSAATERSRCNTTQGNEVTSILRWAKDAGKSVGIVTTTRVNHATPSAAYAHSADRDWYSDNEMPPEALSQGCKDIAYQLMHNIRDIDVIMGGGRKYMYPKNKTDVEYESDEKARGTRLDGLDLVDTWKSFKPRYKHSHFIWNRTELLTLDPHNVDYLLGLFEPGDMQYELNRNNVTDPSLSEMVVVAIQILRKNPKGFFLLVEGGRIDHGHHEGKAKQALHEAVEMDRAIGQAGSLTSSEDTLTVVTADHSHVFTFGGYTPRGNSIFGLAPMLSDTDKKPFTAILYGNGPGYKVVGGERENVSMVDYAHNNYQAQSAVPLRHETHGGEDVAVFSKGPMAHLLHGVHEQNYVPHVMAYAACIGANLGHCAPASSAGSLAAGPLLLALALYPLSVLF

[6] = biological target: Glyceraldehyde-3-phosphate dehydrogenase (Homo sapiens, UniProt P04406)
Chain of Glyceraldehyde-3-phosphate dehydrogenase (P04406 whole entry): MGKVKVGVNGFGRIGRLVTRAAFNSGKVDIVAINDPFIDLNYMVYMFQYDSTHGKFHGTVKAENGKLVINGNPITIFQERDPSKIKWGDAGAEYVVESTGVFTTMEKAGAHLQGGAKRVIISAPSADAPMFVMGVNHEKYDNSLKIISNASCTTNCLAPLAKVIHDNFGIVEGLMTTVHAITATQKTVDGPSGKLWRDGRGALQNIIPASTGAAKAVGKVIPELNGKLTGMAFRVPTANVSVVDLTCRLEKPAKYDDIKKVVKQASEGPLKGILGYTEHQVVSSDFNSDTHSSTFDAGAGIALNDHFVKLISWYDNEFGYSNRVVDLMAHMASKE

BJ [7] = test: cells; format: functional, cell-based; conditions: Homo sapiens
[8] = biological target: T6, Microphthalmia-associated transcription factor (Homo sapiens, UniProt O75030); test: reducers of TRPM1 reporter luminescence, concentration series – cell-based, SK-MEL-5, cherry-picked, set 3, MITF inhibitor project, dose response (AID 493073); format: functional;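 further: SK-MEL-5 melanoma cells with luciferase driven by the MITF target TRPM1 promoter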
T6 sequence (O75030 whole entry): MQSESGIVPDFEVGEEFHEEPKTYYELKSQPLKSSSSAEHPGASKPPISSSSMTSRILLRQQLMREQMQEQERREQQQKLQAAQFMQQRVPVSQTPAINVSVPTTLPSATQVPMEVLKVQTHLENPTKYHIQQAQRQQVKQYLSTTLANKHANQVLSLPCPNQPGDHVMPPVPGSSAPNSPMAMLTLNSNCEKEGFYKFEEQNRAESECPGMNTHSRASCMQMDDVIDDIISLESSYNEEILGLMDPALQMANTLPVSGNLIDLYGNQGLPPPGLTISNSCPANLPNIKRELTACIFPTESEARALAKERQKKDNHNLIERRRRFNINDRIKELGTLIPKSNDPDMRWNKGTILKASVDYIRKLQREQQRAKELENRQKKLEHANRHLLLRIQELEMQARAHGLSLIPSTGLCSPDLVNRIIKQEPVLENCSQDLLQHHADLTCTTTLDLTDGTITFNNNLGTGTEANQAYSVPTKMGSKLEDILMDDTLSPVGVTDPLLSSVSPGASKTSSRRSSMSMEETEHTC

[9] = DRD fibroblast viability loss – cell-based, non-viral oncogenic, luminescence, dose response (AID 1934); format: functional; conditions: Homo sapiens
BJ [10] = test: BJ-TERT-LT-ST fibroblast viability loss – cell-based, RAS-independent, luminescence, dose response (AID 1935); format: functional; conditions: Homo sapiens;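 further: BJ fibroblasts immortalized with TERT plus LT and ST oncogenes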
[11] = Fluorescence-based cell-based high throughput dose response assay for inhibitors of the interaction of nucleotide-binding oligomerization domain containing 2 (NOD2) and the receptor-interacting serine-threonine kinase 2 (RIPK2).; format: functional; conditions: Homo sapiens
BJ [12] = test: BJ-TERT fibroblast viability loss – cell-based, RAS-independent, luminescence, dose response (AID 1933); format: functional; conditions: Homo sapiens
[13] = biological target: T7, Lytic switch protein BZLF1 (Epstein-Barr virus (strain B95-8) (HHV-4) (Human herpesvirus 4), UniProt P03206); test: inhibition of BZLF1 ZTA DNA binding – biochemical, fluorescence polarization, Epstein-Barr virus, 1536-well, counter-screen for EBNA-1 inhibitor project, dose response (AID 2377); design: species or system human gammaherpesvirus 4;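 further: fluorescence polarization of Cy5-labelled ZRE DNA probe bound by purified Zta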
T7 sequence (P03206 whole entry): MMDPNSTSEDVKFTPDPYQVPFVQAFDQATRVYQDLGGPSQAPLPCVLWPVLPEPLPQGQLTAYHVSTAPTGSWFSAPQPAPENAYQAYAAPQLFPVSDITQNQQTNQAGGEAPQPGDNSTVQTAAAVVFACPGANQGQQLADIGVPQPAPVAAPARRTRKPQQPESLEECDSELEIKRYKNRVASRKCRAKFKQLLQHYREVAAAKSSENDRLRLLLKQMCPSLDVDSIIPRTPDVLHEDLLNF

[14] = biological target: T8, Epstein-Barr nuclear antigen 1 (Epstein-Barr virus (strain B95-8) (HHV-4) (Human herpesvirus 4), UniProt P03211); test: inhibition of EBV nuclear antigen 1 DNA binding – biochemical, fluorescence polarization, 1536-well, dose response (AID 2381); design: species or system human gammaherpesvirus 4;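 further: fluorescence polarization of a Cy5 DNA probe bound by EBNA-1 protein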
T8 sequence (P03211 whole entry): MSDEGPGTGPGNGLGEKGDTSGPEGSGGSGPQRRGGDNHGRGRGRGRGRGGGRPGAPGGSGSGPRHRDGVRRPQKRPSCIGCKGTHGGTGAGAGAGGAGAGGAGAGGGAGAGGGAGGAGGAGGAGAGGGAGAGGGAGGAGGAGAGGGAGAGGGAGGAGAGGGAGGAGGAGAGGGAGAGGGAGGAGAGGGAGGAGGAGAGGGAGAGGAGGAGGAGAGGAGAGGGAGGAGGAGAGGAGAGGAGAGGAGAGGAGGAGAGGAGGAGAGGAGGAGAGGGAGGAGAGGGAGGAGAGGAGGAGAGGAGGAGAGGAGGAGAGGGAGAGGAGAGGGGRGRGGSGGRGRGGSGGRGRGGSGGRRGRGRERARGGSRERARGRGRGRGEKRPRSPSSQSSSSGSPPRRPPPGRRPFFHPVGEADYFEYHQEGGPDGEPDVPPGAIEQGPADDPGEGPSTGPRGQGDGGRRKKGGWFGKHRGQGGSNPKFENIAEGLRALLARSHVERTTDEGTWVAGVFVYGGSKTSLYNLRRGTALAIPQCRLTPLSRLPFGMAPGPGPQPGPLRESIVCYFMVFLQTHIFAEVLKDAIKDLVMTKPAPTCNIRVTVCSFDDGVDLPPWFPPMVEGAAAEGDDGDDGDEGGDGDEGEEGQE

[15] = biological target: T9, DNA repair protein RAD52 homolog (Homo sapiens, UniProt P43351); format: functional, biochemical
T9 sequence (P43351 whole entry): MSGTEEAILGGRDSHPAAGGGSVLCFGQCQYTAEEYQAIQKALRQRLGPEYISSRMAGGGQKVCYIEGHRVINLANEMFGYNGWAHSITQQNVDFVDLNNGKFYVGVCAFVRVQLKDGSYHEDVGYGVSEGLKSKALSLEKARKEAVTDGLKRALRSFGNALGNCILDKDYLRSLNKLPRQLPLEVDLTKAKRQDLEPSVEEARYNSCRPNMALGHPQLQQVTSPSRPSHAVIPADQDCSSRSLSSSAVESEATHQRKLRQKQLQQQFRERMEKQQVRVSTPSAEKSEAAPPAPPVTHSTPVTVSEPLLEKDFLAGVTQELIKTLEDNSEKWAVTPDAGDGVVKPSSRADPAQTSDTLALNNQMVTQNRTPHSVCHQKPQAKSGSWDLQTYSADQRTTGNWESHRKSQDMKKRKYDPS

O=C(Nc1ccc(Nc2ccncc2)cc1)c1ccc(Nc2ccnc3ccc([N+](=O)[O-])cc23)cc1
IC50 [1]: 3.36 µM (not active)
IC50 [2]: 0.326 µM (active)
IC50 [3]: > 66.6 µM (inactive)
AC50 [4]: 100 µM (inactive)

Nc1nc(N2C(=O)C3CC=CCC3C2=O)nn1-c1ccccc1 (stereo not drawn)
IC50 (Estrogen receptor): > 50 µM (not active)
IC50 [5]: > 100 µM (inactive)
IC50 [6]: > 100 µM (not active)

CNC(=O)COC(=O)c1ccccc1C(=O)c1ccc(Cl)c([N+](=O)[O-])c1
EC50 (BJ [7]): 5.44 µM (inconclusive)
AC50 [8]: 9.77 µM (active)
EC50 [9]: 10 µM (inconclusive)
EC50 (BJ [10]): 2.42 µM (inconclusive)
IC50 [11]: 2.58 µM (active)
EC50 (BJ [12]): 4.68 µM (active)

CCOc1cccc(NC(=O)Cn2nc(-c3ccc4c(c3)OCCO4)ccc2=O)c1
IC50 [13]: > 111 µM (not active)
IC50 [14]: 13.7 µM (not active)

Cc1[nH]c2ccc(O)cc2c1CCN
AC50 [15]: 4.06 µM (active)

CC(=O)Nc1ccc(NC(=O)C(C)OC(=O)c2oc3ccccc3c2C)cc1 (stereo not drawn)
IC50 [13]: > 111 µM (not active)
IC50 [14]: 9.16 µM (active)
